Where two headings read alike, the source gives them in different places. One block for each compound: values may come before it.
What was measured:
A431 = assay: Cell proliferation (Alamar Blue) assay, A431; type: cell-based; details: Homo sapiens, A-431; Cell Line A431
Procedure: Cells (SJSA-1, 786-O and A431) were seeded (5000 cells/100 μL/well) in 96-well tissue culture plate and incubated at 37° C./5% CO2 for 16-24 hours. The cells were then treated with compounds (25 μL of 5×). The compound concentrations were 10-0.0005 μM prepared in 3-fold serial dilutions with final DMSO concentration of 1%. The plates were then incubated for 24 h at 37° C./5% CO2 in a moist environment. Then Alamar Blue™ reagent (final concentration 1×-12.5 μL) was added to each well and incubated for 1.5 hours at 37° C./5% CO2. The plates were read on fluorescence reader at 540 nm excitation and 590 nm emission wavelengths. The IC50 values were subsequently determined using a sigmoidal dose-response curve (variable slope) in GraphPad Prism® 5 software.
The cell proliferation assays for the compounds shown Table 25 was performed according to the protocols described herein, including Examples 4 and 6.

786-O = assay: Cell proliferation (Alamar Blue) assay, 786-O renal cell carcinoma, with/without ferrostatin; type: cell-based; details: Homo sapiens
Procedure, shortened: (§1)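 Cells seeded at 5000/well, 16-24 h, then exposed 24 h at 37° C to compound, 10-0.0005 μM in 3-fold dilutions, 1% DMSO final. Alamar Blue fluorescence (ex 540/em 590 nm) read after 1.5 h; IC50 from variable-slope sigmoidal fit.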

SJSA-1 = assay: Cell proliferation (Alamar Blue) assay, SJSA-1 osteosarcoma, with/without ferrostatin; type: cell-based, human; details: Homo sapiens
Procedure, shortened: as §1

MCF-10A = assay: Cell viability assay (CellTiter Glo), non-tumorigenic breast epithelial cell line MCF-10A; type: cell-based; details: Homo sapiens, 96 hours
Procedure: (§2) Cell viability assay was performed to assess the potency of the compounds in human cancer cell lines KP4 (pancreatic ductal adenocarcinoma), MiaPaCa-2 (pancreatic carcinoma), AsPC-1 (pancreatic adenocarcinoma, ascites), 143B (osteosarcoma), and SJSA-1 (osteosarcoma). Selected compounds were also assayed in a human breast epithelial cell line MCF-10A, a nontumorigenic cell line as a control to assess differential activity. Cells at a density of 500-5,000 cells/well were seeded in 96-well plates and incubated at 37° C. overnight. A series of 9 different concentrations of compound stocks (500×) were created by 3-fold serial dilution in DMSO. These compounds were further diluted in culture media and then added to cells so that the final DMSO concentration was equal to 0.25% or less. After 96 hours of incubation, 50 μL of CellTiter Glo reagent (Promega) was added to each well and luminescence was measured after 10 minutes using EnVision (PerkinElmer). Compounds titrated from top concentration of up to 30 μM. The select compounds were tested initially from 30 μM as the top concentration in duplicates (range of 4.6 nM-30 μM). […] Luminescence from cells treated with DMSO alone was set as Max and % of inhibition was calculated as follows: Inhibition %=(Max-Sample value)/Max*100. Data was analyzed using XL-fit software (ID Business Solutions Ltd.). IC50, relative IC50, or % of top inhibition was calculated.
Paclitaxel was used as the positive control for cytotoxicity.

MiaPaCa-2 = assay: Cell viability assay (CellTiter Glo), pancreatic carcinoma MiaPaCa-2; type: cell-based; details: Homo sapiens
Procedure: as §2
The results of the assay in the pancreatic cell lines are given in Table 15a for PANC1, Table 15b for MiaPaCa-2, and Table 15c for AsPC-1.

[1] = Whole blood stability, mouse; type: in vitro ADME
From the text: (§3) The results of the assay on stability in blood and IC50 values for pancreatic cancer cell line KP4 are given below in Table 24.

KP4 = assay: Cell viability assay (CellTiter Glo), pancreatic ductal adenocarcinoma KP4; type: cell-based, human; details: Homo sapiens
Procedure, shortened: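 Luminescent ATP readout (CellTiter Glo) after 96 h compound exposure, normalized to DMSO-treated cells as maximum. Compounds ran in duplicate, nine 3-fold steps from 30 μM down to 4.6 nM, final DMSO ≤0.25%; KP4 plated overnight at 1,000–10,000 cells/well. Outputs: IC50, relative IC50 or % top inhibition.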

[2] = Whole blood stability, human; type: in vitro ADME
From the text: as §3

A549 = assay: Cell viability assay, A549 cells; type: cell-based; details: Homo sapiens, A549, Cell Line A549; read-out: IC50
Procedure: Example 5: Inducer Compound Effect on Growth of A549 and KP4 Cells
as §2, with “in” for “in human”, “line” for “lines”, “adenocarcinoma).” for “adenocarcinoma), MiaPaCa-2 (pancreatic carcinoma), AsPC-1 (pancreatic adenocarcinoma, ascites), 143B (osteosarcoma), and SJSA-1 (osteosarcoma). Selected compounds were also assayed in a human breast epithelial cell line MCF-10A, a nontumorigenic cell line as a control to assess differential activity.”, “1,000-10,000” for “500-5,000”, “All” for “Compounds titrated from top concentration of up to 30 μM. The select”, “calculated. […]” for “calculated.”

[3] = 786-0, 24 h, Alamar Blue, 24 h, 2 μM ferrostatin, read-out: 786-O (IC50, μM) 2 μM Ferrostatin
[4] = 786-0, 24 h, Alamar Blue, 24 h, without ferrostatin, read-out: 786-O (IC50, μM) Without Ferrostatin
[5] = 786-0, Cell Line 786-O, read-out: IC50
[6] = SJSA-1, 24 h, Alamar Blue, 24 h, 2 μM ferrostatin, read-out: SJSA-1 (IC50, μM) 2 μM Ferrostatin
[7] = SJSA-1, 24 h, Alamar Blue, 24 h, without ferrostatin, read-out: SJSA-1 (IC50, μM) Without Ferrostatin
[8] = SJSA-1, Cell Line SJSA-1, read-out: IC50
[9] = MIA PaCa-2, pancreatic carcinoma, 96 hours, CellTiter Glo, read-out: IC50 MiaPaCa-2
[10] = KP-4, Cell Line KP4, read-out: IC50
[11] = Cell Line Mia PaCa-2, read-out: IC50

Compound: C#CC(=O)N1[C@@H](c2ccc(S(=O)(=O)NC3CC3)cc2F)c2[nH]c3ccc(OC)cc3c2C[C@@H]1C [Compound 165, N-cyclopropyl-3-fluoro-4-((1S,3S)-6-methoxy-3-methyl-2-propioloyl-2,3,4,9-tetrahydro-1H-pyrido[3,4-b]indol-1-yl)benzenesulfonamide]
- IC50 (A431): 3.44 µM
- IC50 (786-O; [3]): 4.79 µM
- IC50 (786-O; [4]): 0.047 µM
- IC50 (786-O; [5]): 0.047 µM
- IC50 (SJSA-1; [6]): 3.77 µM
- IC50 (SJSA-1; [7]): 0.119 µM
- IC50 (SJSA-1; [8]): 0.119 µM

Compound: C[C@H]1Cc2c([nH]c3ccccc23)[C@@H](c2ccc(N3CCOCC3)nc2)N1C(=O)CCl [Compound 157]
- IC50 (A431): 2 µM
- IC50 (786-O; [5]): > 10 µM
- IC50 (SJSA-1; [8]): > 10 µM

Compound: CC1CN(c2ccc([C@H]3c4[nH]c5ccccc5c4C[C@H](C)N3C(=O)CCl)cc2)CCO1 (stereo partly drawn) [Compound 215]
- IC50 (A431): 8.22 µM
- IC50 (786-O; [3]): 9.88 µM
- IC50 (786-O; [4]): 0.018 µM
- IC50 (786-O; [5]): 0.018 µM
- IC50 (SJSA-1; [6]): 9.41 µM
- IC50 (SJSA-1; [7]): 0.028 µM
- IC50 (SJSA-1; [8]): 0.028 µM

Compound: C[C@H]1Cc2c([nH]c3ccccc23)[C@H](c2ccc(C(=O)NC3CCC3)nc2)N1C(=O)CCl [Compound 214, 5-((1S,3S)-2-(2-chloroacetyl)-3-methyl-2,3,4,9-tetrahydro-1H-pyrido[3,4-b]indol-1-yl)-N-cyclobutylpicolinamide]
- IC50 (A431): 1.58 µM
- IC50 (786-O; [3]): 4.72 µM
- IC50 (786-O; [4]): 0.019 µM
- IC50 (786-O; [5]): 0.019 µM
- IC50 (SJSA-1; [6]): 4.15 µM
- IC50 (SJSA-1; [7]): 0.03 µM
- IC50 (SJSA-1; [8]): 0.03 µM

Compound: CN(C)C(=O)[C@H]1Cc2c([nH]c3ccccc23)[C@H](c2ccc(NC(=O)OC(C)(C)C)cc2)N1C(=O)CCl [Example 56]
- IC50 (MCF-10A): 1.51 µM
- IC50 (MiaPaCa-2; [9]): 759 nM

Compound: COC(=O)[C@H]1Cc2c([nH]c3ccccc23)[C@@H](c2ccc(C(=O)NCCN3CCOCC3)cc2)N1C(=O)CCl [Example 27a]
- Whole Blood Stability % Remaining at 37° C. Mouse ([1]; 0 min): 100.0%
- Whole Blood Stability % Remaining at 37° C. Mouse ([1]; 30 min): 92.5%
- Whole Blood Stability % Remaining at 37° C. Mouse ([1]; 60 min): 81.1%
- IC50 (KP4; KP-4, 96 h, pancreatic cancer cell line KP4, 96 hours, CellTiter Glo, read-out: IC50 μM KP4): 0.1 to 0.5 µM
- IC50 (MiaPaCa-2; [9]): 3000 nM
- Whole Blood Stability % Remaining at 37° C. Human ([2]; 0 min): 100.0%
- Whole Blood Stability % Remaining at 37° C. Human ([2]; 30 min): 54.1%
- Whole Blood Stability % Remaining at 37° C. Human ([2]; 60 min): 40.9%

Compound: COC(=O)[C@H]1Cc2c([nH]c3ccccc23)[C@H](c2ccc(C(=O)OC(C)(C)C)cc2)N1C(=O)C(Cl)Cl [Compound 263]
- IC50 (KP4; [10]): 10.4 µM
- IC50 (MiaPaCa-2; [9]): 5570 nM
- IC50 (MiaPaCa-2; [11]): 5570 nM
- IC50 (A549): 6.22 µM

Now from value to compound, other results behind:

- IC50 (A431): 7 µM
- IC50 (SJSA-1; [8]): > 10 µM
Compound: C[C@H]1Cc2c([nH]c3ccccc23)[C@@H](c2cnn(C3CCOCC3)c2)N1C(=O)CCl [Example 159]

- IC50 (A431): 8.11 µM
- IC50 (SJSA-1; [8]): 0.254 µM
Compound: C[C@H]1Cc2c([nH]c3ccccc23)[C@H](c2ccncc2)N1C(=O)CCl [Example 171]

- IC50 (A431): 3.28 µM
- IC50 (SJSA-1; [8]): 0.019 µM
Compound: CCS(=O)(=O)N1CCN(c2ccc([C@H]3c4[nH]c5ccccc5c4C[C@H](C)N3C(=O)CCl)cc2)CC1 [Example 209]

- IC50 (MiaPaCa-2; [9]): 591 nM
Compound: CN(C)C(=O)[C@H]1Cc2c([nH]c3ccccc23)[C@H](c2ccc(S(C)(=O)=O)cc2)N1C(=O)CCl [Example 59]
- IC50 (MCF-10A): 8.78 µM

- IC50 (A431): 2.8 µM
- IC50 (SJSA-1; [8]): > 10 µM
Compound: CC1CN(c2ccc([C@@H]3c4[nH]c5ccccc5c4C[C@H](C)N3C(=O)CCl)cc2)CCO1 (stereo partly drawn) [Example 127]

- IC50 (KP4; [10]): 0.16 µM
- IC50 (MiaPaCa-2; [9]): 246 nM
- IC50 (MiaPaCa-2; [11]): 260 nM
Compound: COC(=O)[C@H]1Cc2c([nH]c3ccccc23)[C@H](c2ccc(O)cc2)N1C(=O)CCl [Example 265]

Reference: US11098040B2, “Compounds and methods of use” (Ferro Therapeutics, Inc., priority 2018, dated 2021)
